Measured values as given in US20230000813A1, “COMPOUND FOR THE TREATMENT OF BOVINE OR SWINE RESPIRATORY DISEASE” (Intervet Inc., priority 2016, published 2023).
≈ marks a conversion by molar mass, not a printed value.

What was measured:
Experiment in all cases: MIC, broth-microdilution (CLSI VET01-A4)
Type in all cases: cell-based
[1] = tested on: Mannheimia haemolytica MH 13093 (XB0472-6014.1, BRD field isolate)
Experimental: (§1) The Minimum inhibitory concentrations (MIC) of compounds according to the invention for a number of veterinary bacterial pathogens were determined by the broth-microdilution method according to CLSI document VET01-A4.
(§2) Microdilution trays containing a doubling dilution series of the test compound were used for the tests. The MIC results were interpreted according to the CLSI documents VET01-S3. The lowest concentration of compound at which no visible growth (i.e. no turbidity) detected by the unaided eye was recorded as the MIC.

[2] = tested on: Mannheimia haemolytica MH 10720 (154, BRD field isolate); details: Mannheimia haemolytica MH 10720
Experimental: as §1, §2
(§3) The Minimum inhibitory concentrations (MIC) of compounds according to the invention were determined by the broth-microdilution method according to CLSI document VET01-A4.
(§4) Microdilution trays containing a doubling dilution series of the test compound were used for the tests.
(§5) The MIC results were interpreted according to the CLSI documents VET01-S3. The lowest concentration of compound at which no visible growth (i.e. no turbidity) detected by the unaided eye was recorded as the MIC.

[3] = tested on: Mannheimia haemolytica MH 6357 (M7/2, reference strain, cattle infection strain); details: Mannheimia haemolytica MH 6357; for MIC: read-out: MIC MH 6357
Experimental: as §1, §2, §3, §4, §5

[4] = tested on: Pasteurella multocida PM 12080 (IV102277-0093, BRD field isolate); details: Pasteurella multocida PM 12080
Experimental: as §1, §2, §3, §4, §5

[5] = tested on: Pasteurella multocida PM 6391 (ATCC 43137, reference strain); details: Pasteurella multocida PM 6391
Experimental: as §1, §2, §3, §4, §5

[6] = tested on: Pasteurella multocida PM 6267 (P 2225 (L386), reference strain, mouse infection strain); details: Pasteurella multocida PM 6267
Experimental: as §1, §2, §3, §4, §5

[7] = tested on: Mannheimia haemolytica MH 6374 (ATCC 33396, reference strain); details: Mannheimia haemolytica MH 6374; for MIC: read-out: MIC MH 6374
Experimental: as §1, §2, §3, §4, §5

[8] = tested on: Mannheimia haemolytica MH 12587 (1071, BRD field isolate, macrolide-resistance: erm+, E+); details: Mannheimia haemolytica MH 12587, macrolide-resistant
Experimental: as §1, §2, §3, §4, §5

Compound	MIC [1]	MIC MH 10720 [2]	MIC [3]	MIC PM 12080 [4]	MIC PM 6391 [5]	MIC PM 6267 [6]	MIC [7]	MIC MH 12587 [8]	MIC MH 6357 [3]	MIC MH 6374 [7]	MIC ([2]; read-out: MIC MH 10720)
CC(O)C(NC(=O)c1ccc(C#CC#CC=CCNCc2cccs2)cc1)C(=O)NO (stereo not shown) [Compound 464]	0.8 µM (≈ 0.35 µg/mL)	<=0.1 μM	0.4 µM (≈ 0.175 µg/mL)	<=0.1 μM	<=0.1 μM	<=0.1 μM	0.2 µM (≈ 0.0875 µg/mL)	0.8 µM (≈ 0.35 µg/mL)			
C[C@@H](O)[C@H](NC(=O)c1ccc(C#Cc2ccc(CN3CC=CC3)s2)cc1)C(=O)NO [Compound 478]	0.2 µM (≈ 0.0851 µg/mL)	<=0.1 μM		<=0.1 μM	<=0.1 μM	<=0.1 μM		0.4 µM (≈ 0.17 µg/mL)	<=0.1 μM	<=0.1 μM	
Cc1cnc(CNCc2ccc(C#Cc3ccc(C(=O)N[C@H](C(=O)NO)[C@@H](C)O)cc3)cn2)o1 [Compound 495]	1.6 µM (≈ 0.742 µg/mL)	<=0.1 μM	0.4 µM (≈ 0.185 µg/mL)	<=0.1 μM	<=0.1 μM	<=0.1 μM	1.6 µM (≈ 0.742 µg/mL)	1.6 µM (≈ 0.742 µg/mL)			
CC(O)C(NC(=O)c1ccc(C#CC#CC=CCNCc2cccnc2)cc1)C(=O)NO (stereo not shown) [Compound 460]	1.6 µM (≈ 0.692 µg/mL)		0.8 µM (≈ 0.346 µg/mL)	<=0.1 μM	<=0.1 μM	<=0.1 μM	0.8 µM (≈ 0.346 µg/mL)	1.6 µM (≈ 0.692 µg/mL)			
CC(O)C(NC(=O)c1ccc(C#CC#CC=CCNC2CC2)cc1)C(=O)NO (stereo not shown) [Compound 444]	1.6 µM (≈ 0.61 µg/mL)	<=0.1 μM	0.4 µM (≈ 0.153 µg/mL)	<=0.1 μM	<=0.1 μM	<=0.1 μM	0.8 µM (≈ 0.305 µg/mL)	1.6 µM (≈ 0.61 µg/mL)			
C=C(C)CNCc1ccc(C#Cc2ccc(C(=O)N[C@H](C(=O)NO)[C@@H](C)O)cc2)s1 [Compound 476]	0.4 µM (≈ 0.171 µg/mL)	<=0.1 μM	0.2 µM (≈ 0.0855 µg/mL)	<=0.1 μM	<=0.1 μM	<=0.1 μM		0.8 µM (≈ 0.342 µg/mL)		<=0.1 μM	
C[C@@H](O)[C@H](NC(=O)c1ccc(C#Cc2ccc(CNCC(F)(F)F)s2)cc1)C(=O)NO [Compound 477]	0.4 µM (≈ 0.182 µg/mL)	<=0.1 μM		<=0.1 μM	<=0.1 μM	<=0.1 μM	0.2 µM (≈ 0.0911 µg/mL)	0.4 µM (≈ 0.182 µg/mL)	<=0.1 μM		
CC(O)C(NC(=O)c1ccc(C#CC#CC=CCN2CCC(c3ccccc3)CC2)cc1)C(=O)NO (stereo not shown) [Compound 448]	1.6 µM (≈ 0.777 µg/mL)	<=0.1 μM	0.8 µM (≈ 0.388 µg/mL)	<=0.1 μM	<=0.1 μM	<=0.1 μM	0.4 µM (≈ 0.194 µg/mL)	1.6 µM (≈ 0.777 µg/mL)			
CC(O)C(NC(=O)c1ccc(C#CC#CC=CCNCc2ccnc(Cl)c2)cc1)C(=O)NO (stereo not shown) [Compound 461]	1.6 µM (≈ 0.747 µg/mL)	<=0.1 μM	0.4 µM (≈ 0.187 µg/mL)	<=0.1 μM	<=0.1 μM	<=0.1 μM	0.4 µM (≈ 0.187 µg/mL)	1.6 µM (≈ 0.747 µg/mL)			
C[C@@H](O)[C@H](NC(=O)c1ccc(C#Cc2ccc(CNCc3ccc(F)cc3)cc2)cc1)C(=O)NO [Compound 475]	0.8 µM (≈ 0.38 µg/mL)		0.2 µM (≈ 0.0951 µg/mL)	<=0.1 μM	<=0.1 μM	<=0.1 μM	0.4 µM (≈ 0.19 µg/mL)	0.8 µM (≈ 0.38 µg/mL)			
CC(O)C(NC(=O)c1ccc(C#CC#CC=CCNCc2ccc(Cl)cc2)cc1)C(=O)NO (stereo not shown) [Compound 453]	1.6 µM (≈ 0.745 µg/mL)	<=0.1 μM	1.6 µM (≈ 0.745 µg/mL)	<=0.1 μM	<=0.1 μM	<=0.1 μM	0.4 µM (≈ 0.186 µg/mL)	1.6 µM (≈ 0.745 µg/mL)			
C=C(C)CNCc1ccc(C#Cc2ccc(C(=O)N[C@H](C(=O)NO)[C@@H](C)O)cc2)cn1 [Compound 486]	1.6 µM (≈ 0.676 µg/mL)		0.8 µM (≈ 0.338 µg/mL)	<=0.1 μM	<=0.1 μM	<=0.1 μM	1.6 µM (≈ 0.676 µg/mL)	1.6 µM (≈ 0.676 µg/mL)			0.2 µM (≈ 0.0845 µg/mL)
